Test results reported in patent publication US11197811B2, “Teeth whitening methods, visually perceptible signals and compositions therefor” (Colgate-Palmolive Company, priority 2012, dated 2021).
Values belong to the molecule of their own block, whether it stands above or below them.

Tests used:
[1] = pH of gel phase batches; assay type: physicochemical; settings: original oral gel batch
[2] = Dilution experiment of gel phase batches (absorbance); assay type: physicochemical; settings: for Absorbance, 2 fold dilution: gel phase batch diluted 2 fold; for Absorbance, 4 fold dilution: gel phase batch diluted 4 fold; for Absorbance, 8 fold dilution: gel phase batch diluted 8 fold; for Absorbance, 16 fold dilution: gel phase batch diluted 16 fold; for Absorbance, 32 fold dilution: gel phase batch diluted 32 fold
Excerpt: (§1) Lambda 25 UV/VIS Spectrometer (PerkinElmer) is used to obtain absorbance information for all samples in order to compare the clarity of gel phase between different actives. Absorbance is a logarithmic measure of the amount of light that is absorbed when passing through a substance. Since the particles in the gel absorb light, the more particles existing in solution, the more light absorbed by the gel. Thus, a small number of absorbance of a gel indicates a higher clarity. The absorbance is corrected by using deionized (DI) water as the blank solution under the light source wavelength of 610 nm.
(§2) Dilution experiment: All original gel phase batch are diluted into 2 fold, 4 fold, 8 fold, 16 fold and 32 fold. […] This observation confirms the formation of precipitate when ZLC gel is being diluted by water. The pHs of 2 fold, 4 fold, 8 fold, 16 fold, and 32 fold diluted ZLC gel solution are 7.71, 7.91, 8.03, 8.12, and 8.14, respectively.

[3] = Clarity of gel phase by UV/VIS absorbance; assay type: physicochemical; settings: original oral gel, 0.5% (w/w) zinc level; for Absorbance: 610 nm, DI water blank
Protocol: Four 500.0 g gel phase batches which contain NaF (control), ZLC, ZnCl2 and ZnO as active ingredient are formulated with the ingredients shown in Table 8. The clarity of samples with different actives is compared, and the precipitation characteristic of ZLC gel phase by dilution is evaluated. The concentration of zinc ions in ZLC solution is 25300 ppm obtained by ICP, which in terms gives approximately 17% weight of ZLC actives in the solution. Zinc ion concentration in the following batches are all prepared at 0.5% (w/w) zinc level.
as §1

[4] = Deposition/occlusion assay, confocal imaging; design: species or system human; settings: 0.149% zinc, 1 hour at 37° C.
Protocol: (§3) The deposition/occlusion assay is conducted using human dentine slices and the neat solution of Example 3. The dentine slices are prepared by cutting human tooth into thin dentine sections of about 800 microns in thickness, designating a test side, sanding said test side using a sandpaper of about 600 grit, polishing said test side using a Buehler polishing cloth and 5 micron Buehler aluminum oxide, acid-etching said dentine section in 1% (by weight) citric acid solution for about 20 seconds, sonicating said dentine section for 10 minutes, and storing said dentine section in phosphate buffered saline (PBS, pH 7.4, Gibco Cat. No. 10010).
(§4) For treatment, the neat solution is diluted 16-fold with water, yielding a treatment solution with initial zinc concentration of about 0.149% by weight. The dentine section is immersed in the treatment solution for 1 hour at 37° C. The treated dentine section is then removed from the treatment solution, and rinsed 4 times, each time with 1 mL of PBS. The dentine section is then dried using a paper-based tissue and examined under confocal microscope in both XYZ and XYZ modes. Subsequent treatments are conducted in the same manner.
Progressive deposition and occlusion can be observed via confocal imaging. […] The surface deposits can be 10 microns or more in thickness. […] The surface deposits can be 25 microns or more in thickness.

[5] = Repeated 10 minute treatments of dentine section, confocal imaging; design: species or system human; settings: 10 minutes at 37° C.; for surface deposition on dentine: 0.0747% zinc
Protocol: as §3
A new dentine sections, as prepared following the procedure in Example 4, is repeatedly treated with ZLC dilutions with initial zinc concentration of 0.0747% by weight. […] The dentine section is examined under the confocal microscope after each treatment.

[6] = Dilution of neat ZLC solution, flocculation/precipitation monitored; assay type: physicochemical; settings: 37° C.
Protocol: Various dilutions of ZLC are prepared to evaluate its efficiency in producing visible precipitates and/or flocculation, which can be delivered onto a dental surface (dentine and/or enamel) for whitening benefits.
(§5) A neat solution of ZLC is prepared by 1), reacting 0.5 mole of ZnO powder with 1 mole of lysine HCl in 1 liter of water at room temperature for about 2 hours, and 2) collecting the supernatant through centrifugation followed by filtration using a 0.45 micron membrane. The neat solution has a zinc concentration of 2.39% by weight, and a pH of about 7.03.
(§6) Dilution experiment is conducted by mixing the neat solution with deionized water. The neat solution is diluted by 2×, 4×, 6×, 7×, 8×, 10×, 12×, 16×, 20×, 24×, 28×, and 32×, corresponding to initial zinc concentrations of 1.20%, 0.598%, 0.398%, 0.341%, 0.299%, 0.239%, 0.199%, 0.149%, 0.120%, 0.0996%, 0.0854%, 0.0747%, by weight, respectively. The diluted samples are kept at 37° C., and the rates at which flocculation/precipitation occurred are monitored.

[7] = pH of diluted ZLC gel solution; assay type: physicochemical
Protocol: as §2

[8] = Spectrophotometric analysis of whitening (CIELAB color reading); design: species or system human; settings: dentine section of Example 4 after third treatment
Protocol: as §4
Spectrophotometric analysis proves the whitening efficacy of the ZLC treatment. After the third treatment, the dentine section of Example 4 is dried and examined under a Spectroshade™ spectrophotometer (Handy Dental Type 71,3000). The treated dentinal area is included and the enamel rim is excluded from the examination and subsequent data processing. The CIELAB color reading is L*=86.6, a*=−1.7, and b*=1.5. A similarly prepared dentine section without treatment yielded a reading of L*=72.5, a*=−1.9, and b*=10.3. It is commonly understood that, by definition, L*=0 means black and L*=100 indicates diffuse white, negative a* value indicates green while positive values indicate magenta, and negative b* values indicate blue and positive values indicate yellow.

[9] = pH of neat and final diluted ZLC solutions; assay type: physicochemical
Protocol: as §5, §6
pH values of final diluted samples are suitable for oral care applications. […] These pH values are well within the range of 5.5 to 10, which defines the suitable range for oral care formulations.

- pH [1]: 5.25
- Absorbance, 2 fold dilution [2]: 0.7315
- Absorbance, 4 fold dilution [2]: 0.3700
- Absorbance, 8 fold dilution [2]: 0.1701
- Absorbance, 16 fold dilution [2]: 0.0570
- Absorbance, 32 fold dilution [2]: 0.0280
- appearance of gel phase [3]: appears cloudy
- Absorbance [3]: 0.9204
Molecule: [Cl-].[Cl-].[Zn+2] [ZnCl2]

- pH [1]: 7.37
- Absorbance, 2 fold dilution [2]: 0.1436
- Absorbance, 4 fold dilution [2]: 0.1887
- Absorbance, 8 fold dilution [2]: 0.1860
- Absorbance, 16 fold dilution [2]: 0.1336
- Absorbance, 32 fold dilution [2]: 0.2998
- precipitation by naked eyes during treatment ([5]; initial zinc 0.0747%): no precipitation
- time to some visible flocculation from mixing with water ([6]; initial zinc concentrations 0.149% and 0.199%): ≤ 30 min
- flocculation observed ([6]; one and a half hours after mixing, initial zinc between 0.0747% and 0.239%): visible flocculation
- flocculation observed ([6]; one hour from mixing, initial zinc between 0.0854% and 0.239%): visible flocculation
- relative amount of precipitates ([6]; total of 19 hours, initial zinc between 0.0747% and 0.239%): the most precipitates
- flocculation observed ([6]; two hours after mixing, initial zinc 0.299%): presence of flocculation
- appearance of gel phase [3]: forms a homogenous solution
- Absorbance [3]: 0.1765
- pH of diluted ZLC gel solution ([7]; 2 fold diluted): 7.71
- pH of diluted ZLC gel solution ([7]; 4 fold diluted): 7.91
- pH of diluted ZLC gel solution ([7]; 8 fold diluted): 8.03
- pH of diluted ZLC gel solution ([7]; 16 fold diluted): 8.12
- pH of diluted ZLC gel solution ([7]; 32 fold diluted): 8.14
- final pH value of diluted sample ([9]; initial zinc concentration 0.0747%): 7.99
- final pH value of diluted sample ([9]; initial zinc concentration 0.0854%): 8.13
- final pH value of diluted sample ([9]; initial zinc concentration 0.0996%): 8.11
- final pH value of diluted sample ([9]; initial zinc concentration 0.120%): 7.97
- final pH value of diluted sample ([9]; initial zinc concentration 0.149%): 7.99
- final pH value of diluted sample ([9]; initial zinc concentration 0.199 wt %): 6.80
- final pH value of diluted sample ([9]; initial zinc concentration 0.239%): 6.70
- pH of neat solution ([9]; neat solution, zinc concentration 2.39% by weight): about 7.03
Molecule: [Zn(C6H14N2O2)2Cl]^+Cl^− [ZLC]
- deposition and occlusion on dentine surface ([4]; first treatment): noticeable deposition
- deposition and occlusion on dentine surface ([4]; second treatment): complete surface coverage, including blocking of substantially all tubule openings
- thickness of surface deposits ([4]; second treatment): ≥ 10 microns
- deposition and occlusion on dentine surface ([4]; third treatment): complete surface coverage and complete blocking of tubule openings
- thickness of surface deposits ([4]; third treatment): ≥ 25 microns
- surface deposition on dentine ([5]; after 4 consecutive treatments): significant surface deposition
- surface deposition on dentine ([5]; after 12 consecutive treatments): complete surface coverage
- flocculation and/or precipitation observed ([6]; total of 19 hours, all samples except initial zinc 1.20%): flocculation and/or precipitation can be observed
- CIELAB color reading L* ([8]; untreated section L*=72.5): 86.6
- CIELAB color reading a* ([8]; untreated section a*=−1.9): −1.7
- CIELAB color reading b* ([8]; untreated section b*=10.3): 1.5

- pH [1]: 8.30
- Absorbance, 2 fold dilution [2]: 2.4630
- Absorbance, 4 fold dilution [2]: 2.5340
- Absorbance, 8 fold dilution [2]: 2.1883
- Absorbance, 16 fold dilution [2]: 1.8638
- Absorbance, 32 fold dilution [2]: 1.0492
- Absorbance [3]: 2.4626
Molecule: [O-2].[Zn+2] [ZnO]
- appearance of gel phase [3]: not dissolved and is suspended in gel phase

- pH [1]: 7.63
- Absorbance, 2 fold dilution [2]: 0.0106
- Absorbance, 4 fold dilution [2]: 0.0104
- Absorbance, 8 fold dilution [2]: 0.0107
- Absorbance, 16 fold dilution [2]: 0.0075
- Absorbance, 32 fold dilution [2]: 0.0137
- Absorbance [3]: 0.0344
Molecule: [F-].[Na+] [NaF]
